Patent US20040010001A1, “Methods and compositions for modulating cell proliferation and cell death” (priority 1999, published 2004)
Read-outs that look alike come from different tables or passages of the source.

Legend:
Type in all cases: cell-based
[1] = system: rat lymph node metastasis cells, monolayers; assay: Drug effect in monolayers of rat lymph node metastasis cells (inhibition of bromodeoxyuridine incorporation); conditions: 96 h, read-out: Concentration producing 50% inhibition
[2] = system: Human breast BC19 (subline of MCF7 transfected with mdr1); assay: FGF-induced resistance, inhibition of BrdU incorporation; conditions: read-out: Drug concentration needed to produce 50% inhibition
Method: (§1) Prior to drug treatment, cells were incubated for 4 days with tumor CM or with r-aFGF ad/or r-bFGF-containing medium, supplemented with 1% FBS (final protein concentration adjusted to 2 mg/ml). The medium was renewed every other day.
(§2) The antiproliferative drug effect in histocultures was measured as inhibition of ^3H-thymidine incorporation quantified by autoradiography (Yen, W. C. et al. (1996) Pharm. Res. 13:1305-1312) and, for monolayers, as inhibition of BrdU incorporation or as reduction of total proteins by the sulforhodamine B assay (Au, J. L.-S. et al. (1998) Cancer Res. 58:2141-2148). For the latter, the two assays yielded qualitatively similar results. Cell kill induced by 96-hour drug treatment was monitored by the release of LDH into the culture medium. LDH activity was monitored by the conversion of tetrazolium to formazan (detected at 490 nm).
(§3) The experimental conditions are described briefly below. Cells were pretreated with human recombinant r-aFGF and/or r-bFGF for 96 hours and then with drugs for 96 hours. For the studies on cells derived from the human prostate, lung, pharynx, colon and breast cancer cells, the drug effect was determined by the inhibition of BrdU incorporation. For the study on the human leukemic cells, the drug effect was measured by the MTT assay, which measures the number of metabolically active cells (Alley, M. C. et al (1988) Cancer Res 48:589-601).

[3] = system: Human lung A459; assay: as above; conditions: read-out: Drug concentration needed to produce 50% inhibition
Method: as §1, §2, §3

[4] = system: Human colon HT-29; assay: as above; conditions: read-out: Drug concentration needed to produce 50% inhibition
Method: as §1, §2, §3

[5] = system: Rat prostate MAT-LyLu; assay: as above; conditions: read-out: Drug concentration needed to produce 50% inhibition
Method: as §1, §2, §3

[6] = system: Human pharynx FaDu; assay: as above; conditions: read-out: Drug concentration needed to produce 50% inhibition
Method: as §1, §2, §3

[7] = system: Human prostate PC3; assay: as above; conditions: Homo sapiens, read-out: Drug concentration needed to produce 50% inhibition
Method: as §1, §2, §3

[8] = system: Human breast MCF7; assay: as above; conditions: read-out: Drug concentration needed to produce 50% inhibition
Method: as §1, §2, §3

[9] = system: rat primary tumors, histocultures; assay: Drug effect in histocultures of rat primary tumors (inhibition of 3H-thymidine incorporation)
[10] = system: Human prostate PC3 tumor cells; assay: Drug treatment and extracellular bFGF (ELISA), LDH release, cell number; conditions: for Extracellular bFGF, % of control / Extracellular concentration bFGF / Extracellular LDH, % of control: 72 hours
Method: The experimental conditions are described briefly below. […] The remaining cell number at the end of treatment was counted using a Coulter counter. The extracellular bFGF concentration was measured using ELISA. The release of lactate dehydrogenase (LDH) into the extracellular culture medium is indicative of cell death and gives a measure of the release of cellular content into the culture medium. If the increase in extracellular bFGF level is due to the release of bFGF upon cell death and lysis, the increase in bFGF will be accompanied by an increase in LDH in the same extent. This would result in an higher bFGF level and a constant bFGF-to-LDH ratio. On the other hand, an increase in extracellular bFGF due to an increase in bFGF production and release of bFGF from cells by processes other than cell lysis will result in an higher bFGF level and an higher bFGF-to-LDH ratio.

[11] = 96 h, r-aFGF + r-bFGF 0.04 ± 1 ng/ml
[12] = 96 h, r-aFGF + r-bFGF 0.08 ± 1 ng/ml
[13] = 96 h, r-aFGF + r-bFGF 0.64 ± 1 ng/ml
[14] = 96 h, r-aFGF + r-bFGF 1 ± 1 ng/ml

IC50 ([1]; Monolayers (passage 0)): 32.9 ± 3.6 nM
IC50 ([1]; Monolayers (passage 1)): 21.8 ± 0.9 nM
IC50 ([1]; Monolayers (passage 2)): 15 ± 0.9 nM
IC50 ([1]; Monolayers (passage 3)): 11.7 ± 0.3 nM
IC50 ([2]; r-bFGF 0 ng/ml): 59.6 nM
IC50 ([2]; r-bFGF 0.01 ng/ml): 112 nM
IC50 ([2]; r-bFGF 0.1 ng/ml): 183 nM
IC50 ([2]; r-bFGF 1 ng/ml): 236 nM
IC50 ([3]; A459, r-bFGF 0 ng/ml): 0.87 nM
IC50 ([3]; A459, r-bFGF 1 ng/ml): 0.9 nM
IC50 ([3]; A459, r-bFGF 10 ng/ml): 1.07 nM
IC50 ([3]; A459, r-bFGF 50 ng/ml): 1.22 nM
IC50 ([4]; HT-29, 96 h, r-aFGF + r-bFGF 0 ng/ml): 2.2 nM
IC50 ([4]; HT-29, 96 h, r-aFGF + r-bFGF 0.04 ± 1 ng/ml): 2 nM
IC50 ([4]; HT-29, 96 h, r-aFGF + r-bFGF 0.08 ± 1 ng/ml): 2 nM
IC50 ([4]; HT-29, 96 h, r-aFGF + r-bFGF 0.16 ± 1 ng/ml): 2.1 nM
IC50 ([4]; HT-29, 96 h, r-aFGF + r-bFGF 0.64 ± 1 ng/ml): 6.2 nM
IC50 ([4]; HT-29, r-aFGF 0 ng/ml): 2.1 nM
IC50 ([4]; HT-29, r-aFGF 1 ng/ml): 2 nM
IC50 ([4]; HT-29, r-aFGF 10 ng/ml): 1.9 nM
IC50 ([4]; HT-29, r-aFGF 50 ng/ml): 2 nM
IC50 ([4]; HT-29, r-aFGF + r-bFGF 1 ± 1 ng/ml): 10.8 nM
IC50 ([4]; HT-29, r-bFGF 0 ng/ml): 2.1 nM
IC50 ([4]; HT-29, r-bFGF 1 ng/ml): 2 nM
IC50 ([4]; HT-29, r-bFGF 10 ng/ml): 1.9 nM
IC50 ([4]; HT-29, r-bFGF 50 ng/ml): 2 nM
IC50 ([5]; r-bFGF 0 ng/ml): 12.7 nM
IC50 ([5]; r-bFGF 1 ng/ml): 16.3 nM
IC50 ([5]; r-bFGF 10 ng/ml): 47.8 nM
IC50 ([5]; r-bFGF 50 ng/ml): 214 nM
IC50 ([6]; 96 h, r-aFGF + r-bFGF 0 ng/ml): 0.82 nM
IC50 [6, 11]: 0.84 nM
IC50 [6, 12]: 0.82 nM
IC50 ([6]; 96 h, r-aFGF + r-bFGF 0.16 ± 1 ng/ml): 0.81 nM
IC50 ([6]; 96 h, r-aFGF + r-bFGF 0.32 ± 1 ng/ml): 0.84 nM
IC50 [6, 13]: 2.01 nM
IC50 [6, 14]: 3.5 nM
IC50 ([6]; r-aFGF 0 ng/ml): 0.82 nM
IC50 ([6]; r-aFGF 1 ng/ml): 0.8 nM
IC50 ([6]; r-aFGF 10 ng/ml): 0.82 nM
IC50 ([6]; r-aFGF 50 ng/ml): 0.83 nM
IC50 ([6]; r-bFGF 0 ng/ml): 0.77 nM
IC50 ([6]; r-bFGF 1 ng/ml): 0.79 nM
IC50 ([6]; r-bFGF 10 ng/ml): 0.74 nM
IC50 ([6]; r-bFGF 50 ng/ml): 0.82 nM
IC50 ([7]; 96 h, r-aFGF + r-bFGF 0 ng/ml): 1.2 nM
IC50 [7, 11]: 1.2 nM
IC50 [7, 12]: 2.1 nM
IC50 [7, 13]: 5.8 nM
IC50 [7, 14]: 6.9 nM
IC50 ([7]; 96 h, r-aFGF + r-bFGF): 3.1 nM
IC50 ([7]; r-aFGF 0 ng/ml): 1.2 nM
IC50 ([7]; r-aFGF 1 ng/ml): 1.2 nM
IC50 ([7]; r-aFGF 10 ng/ml): 1.1 nM
IC50 ([7]; r-aFGF 50 ng/ml): 1.2 nM
IC50 ([7]; r-bFGF 0 ng/ml): 1.2 nM
IC50 ([7]; r-bFGF 1 ng/ml): 1.2 nM
IC50 ([7]; r-bFGF 10 ng/ml): 2.1 nM
IC50 ([7]; r-bFGF 50 ng/ml): 3.3 nM
IC50 ([8]; MCF7, r-bFGF 0 ng/ml): 0.32 nM
IC50 ([8]; MCF7, r-bFGF 0.01 ng/ml): 0.45 nM
IC50 ([8]; MCF7, r-bFGF 0.1 ng/ml): 0.84 nM
IC50 ([8]; MCF7, r-bFGF 1 ng/ml): 1.3 nM
Compound: CC(=O)O[C@H]1C(=O)[C@@]2(C)[C@H]([C@H](OC(=O)c3ccccc3)[C@]3(O)C[C@H](OC(=O)[C@H](O)[C@@H](NC(=O)c4ccccc4)c4ccccc4)C(C)=C1C3(C)C)[C@]1(OC(C)=O)CO[C@@H]1C[C@@H]2O [Paclitaxel]
inhibition at 10 µM [9]: < 50%
IC30 (concentration producing 30% inhibition) ([9]; 24 h, read-out: Concentration producing 50% inhibition (data shown are the concentrations that produced 30% inhibition)): > 14 nM
Remaining cell number at 72 hours (% of control) ([10]; drug concentration 2.5 NM): 87%
Remaining cell number at 72 hours × 10^6 ([10]; drug concentration 2.5 NM): 2.0 × 10^6
Extracellular bFGF, % of control ([10]; drug concentration 2.5 NM): 347 % of control
Extracellular concentration bFGF ([10]; drug concentration 2.5 NM): 19.5 pg/mL
Remaining cell number at 72 hours (% of control) ([10]; drug concentration 5 NM): 43%
Remaining cell number at 72 hours × 10^6 ([10]; drug concentration 5 NM): 1.0 × 10^6
Extracellular LDH, % of control ([10]; drug concentration 5 NM): 437 % of control
Extracellular bFGF, % of control ([10]; drug concentration 5 NM): 1358 % of control
Extracellular concentration bFGF ([10]; drug concentration 5 NM): 76.3 pg/mL
Remaining cell number at 72 hours (% of control) ([10]; drug concentration 10 NM): 22%
Remaining cell number at 72 hours × 10^6 ([10]; drug concentration 10 NM): 0.5 × 10^6
Extracellular LDH, % of control ([10]; drug concentration 10 NM): 705 % of control
Extracellular bFGF, % of control ([10]; drug concentration 10 NM): 2917 % of control
Extracellular concentration bFGF ([10]; drug concentration 10 NM): 164 pg/mL
